# Laboratory results: US7893109B2, “N,N-dihalogenated amino acids and derivatives” (Novabay Pharmaceuticals, Inc., priority 2003, dated 2011)
# Where two headings read alike, the source gives them in different places.
# Assays:
# in vitro = conditions: human, pH 3.5
# Procedure: (§1) Cytotoxicity was assessed by a […] assay system, initially described by Scudiero et al., using 3′-(phenylamino-carbonyl)-3,4-tetrazolium-bis(4-methoxy-6-nitro) benzene sulfonic acid hydrate (XTT), ProCheck™ cell viability assay (Evaluation of a soluble tetrazolium/formazan assay for cell growth and drug sensitivity in culture using human and other tumor cell lines described by Scudiero D A, Shoemaker R A H, Paul K D, Monks A, Tierney S, Nofziger T H, Currens M J, Seniff D, Boyd M R. Cancer Res. 1988 Sep. 1; 48(17):4827-33). Similar approaches for determining the cell viability are used by other investigators. Three cell types were used: […] (L929), primary human skin fibroblast and primary human keratinocyte cells cultured in Dulbecco Modified Eagle's Medium and Keratinocyte defined medium with corresponding growth factors plus antibiotics. Cells were trypsinized and counted under the microscope and seeded at 1000-to-2000 cells per well of a flat-bottom 96-well plate. Cells were allowed to grow over-night at 37° C. Next day, tissue culture media was removed and cells were rinsed with fresh media 1× and then left in 50 μL of tissue culture media. Test articles were prepared as 2-fold dilutions and 200 μL was added into each set of 4-wells (total volume per well=250 μL). Cells were exposed to test articles for 60 min at room temperature. Immediately after the exposed time, test article from each well was removed and cells were fed with 250 μL of fresh media. Plates were incubated at 37° C. for 18-20 hours. The following day media was removed again and replaced with 100 μL/well of fresh media containing 10/100 μL XTT-reagent. Cells were incubated under growth conditions (5% CO2 at 37° C. humidified incubator), protected from light, until color development was achieved. Absorbance was read at 450 nm with reference wavelength at 750 nm using Molecular Device ThermoMax Plate reader, blanking the plate on the medium-only assay blank wells. Untreated cells receiving XTT reagents-only served as positive cell proliferation control.
# [1] = test system: Primary Human Skin Fibroblasts; test: XTT cytotoxicity assay, primary human skin fibroblasts; conditions: for cell inhibitory concentration toxicity index (CCI50 / IC50), 50% of cells still alive: Primary Human Skin Fibroblasts, XTT Assay, 60 min exposure
# Procedure: as §1
# [2] = test system: Escherichia coli (ATCC 11229); test: Bactericidal activity (MBC / effective antimicrobial concentration); assay type: cell-based
# Procedure: To determine the bactericidal activity, we used Escherichia coli (ATCC 11229). The bacterial culture was diluted in sterile saline to prepare inocula. Various test articles were transferred to individual tubes already containing 1.0×10^5 to 2.0×10^5 Colony Forming Units (CFU)/mL bacteria and mixed by gentle vortexing and then incubated at 37° C. for 1 or 24 hours. In an attempt to mimic as far as possible the conditions, which could be produced in vivo if the test articles were used as antiseptics, bacterial plating in a Petri dish was performed immediately after the designated exposure time without the addition of a neutralizer, and independently with addition of neutralizer (as control). Thus, 0.1 mL was removed after 1 or 24 hours exposure times and plated. Plates were incubated at 37° C., and the numbers of bacteria were counted by direct colony count to numerate the surviving bacteria as CFU/mL. Positive growth controls were made with sterile 0.9% saline. All test articles were tested three times.
# [3] = pH 3.5
# [4] = assay type: physicochemical
# Excerpt: N,N-dichlorotaurine can be identified and quantitatively determined by UV spectroscopy.
# [5] = UV-vis spectrum and concentration of NNDCT solutions at pH 3.0 to 5.0; assay type: physicochemical; conditions: 1.49 mM; pH range from 3.0 to 5.0
# Procedure: The spectra and the concentrations of the solutions were measured on the UV-vis spectrometer.
# Add 8.8 g NaCl, 2 ml of 1.0 M HCl, and 0.278 g of taurine into a 1000-ml volumetric flask, followed by adding about 800 ml of deionized water into the flask. Shake the flask to dissolve NaCl and taurine powders. Then add […] of 0.15M of the NaOCl solution into the flask. Fill the flask up to the mark with deionized water. Stir the solution with a magnetic stirring bar for 5 minutes. The concentration and the pH of the resulting solution were measured on a UV-vis spectrometer and a freshly calibrated Beckman pH meter. This solution has a concentration of 1.49 mM and a pH value of 3.85. […] The final pH of this solution is 3.0. […] The final pH of this solution is 4.85.
# Solutions with varying pH values were prepared in a similar manner within the pH range of 3 to 5. All solutions show stability if properly stored as shown by their UV spectra.
# [6] = Storage stability of N,N-dichlorotaurine solution in a vial in a refrigerator; assay type: physicochemical; conditions: solution in a vial stored in a refrigerator; three months
# Procedure: The stability of a solution of N,N-dihaloamino acids and their derivatives permits the use of different forms of packaging that would be practical for use by patients. The solution may be packaged in several single-use 30 ml amber glass bottles with Teflon-lined screw caps and sealed with tape to ensure gas tightness. In one aspect, the same solution may be packaged in a 250 ml amber glass bottle or in a 250 ml non-reactive plastic bottle. However, up to 5 liter bottles may be used, because such larger volumes are practical for treatment of burns. Storage in these receptacles ensures long-term stability required for the uses of the compositions described herein in detail. […] Additionally, packaging may include a dual chamber system where component A is mixed with component B to form the final product, N,N-dihaloamino acid or its derivatives.
# [7] = Volatility test, tightly vs loosely capped bottles; assay type: physicochemical; conditions: 1.47 mM in 0.9% saline at pH 3.5; 4 weeks at room temperature
# Procedure: NNDCT is not volatile. A solution of 1.47 mM in 0.9% saline at pH 3.5 was filled in two glass bottles. One bottle was capped tightly and another was capped loosely.
# [8] = pH=1.88; after 100 hours; cited from earlier work
compound,measurement,setting,value
"OCl [HOCl, hypochlorous acid, reference compound]",IC50 at 60 min,in vitro,47 µg/mL
same,"cell inhibitory concentration toxicity index (CCI50 / IC50), 50% of cells still alive",[1],800 µM
"O=S(=O)(O)CCNCl [NCT, N-chlorotaurine, reference compound]",factor by which less antimicrobial than NNDCT,[2]; on an equal concentration basis,1000 fold
"O=S(=O)(O)CCN(Cl)Cl [NNDCT, N,N-dichlorotaurine]",NNDCT lost,"[3]; 4 weeks, refrigerator (4° C.), [NNDCT]initial=1.47 mM",5.4%
same,order of stability at three temperatures,[3],4° C.>room temperature>40 °C
same,IC50 at 60 min,in vitro,1440 µg/mL
same,range of cell toxicity relative to antimicrobial (μM) range,"[1]; 0.9% saline at pH 3.5, XTT assay, cell type not stated in Example 5",1000 fold
same,"cell inhibitory concentration toxicity index (CCI50 / IC50), 50% of cells still alive",[1],7000 µM
same,solubility in water,[4],very soluble
same,change of spectrum and concentration of solution with pH,[5],did not change
same,"loss of N,N-dichlorotaurine",[6],no more than 13%
same,bacterial killing efficiency of NNDCT at pH 3.5 compared to NCT at pH 9.5,[2]; 60 min exposure at 37° C.,1000 fold
same,bacterial killing efficiency of NNDCT at pH 3.5 over NNDCT at pH 5.0,[2]; 60 min exposure at 37° C.,about 300 fold
same,effectiveness against E. coli compared with HOCl,[2]; pH 3.5,better or as effective against E. coli as HOCl
same,volatility,[7],not volatile
same,"loss of N,N-dichlorotaurine",[8],less than 5%
"OCl [OCl^−, reference compound]","cell inhibitory concentration toxicity index (CCI50 / IC50), 50% of cells still alive",[1],660 µM
